# Experimental data: patent US9090584B2, “Therapeutic agents for treatment of ocular hypertension” (Allergan, Inc., priority 2010, dated 2015)
# Where two headings read alike, the source gives them in different places.
# What was measured:
# [1] = tested on: laser-induced hypertensive monkeys; conditions: 0.05%, one single day dose, maximum at 6 h
# Description: (§1) U.S. Pat. No. 7,091,231 describes the methods used for these in vivo tests.
# (§2) Isopropyl 5-(2-(3′,4-difluoro-[1,1′-biphenyl]-3-ylcarboxamido)ethyl)thiophene-2-carboxylate was tested in normotensive dogs at 0.05%, dosing once daily for 5 days. […] This compound was also tested in laser-induced hypertensive monkeys, using one single day dose.
# (§3) 2-Hydroxyethyl 5-(2-(3′,4-difluoro-[1,1′-biphenyl]-3-ylcarboxamido)ethyl)thiophene-2-carboxylate was tested in normotensive dogs at 0.05%, dosing once daily for 5 days. […] This compound was also tested in laser-induced hypertensive monkeys, using one single day dose.
# normotensive dogs = conditions: 0.05%, once daily for 5 days
# Description: as §1, §2, §3
# EP4 [2] = target: T1, EP4 (Homo sapiens, UniProt P35408); assay: EP4 flipr functional assay; format: cell-based
# T1 sequence (P35408 whole entry): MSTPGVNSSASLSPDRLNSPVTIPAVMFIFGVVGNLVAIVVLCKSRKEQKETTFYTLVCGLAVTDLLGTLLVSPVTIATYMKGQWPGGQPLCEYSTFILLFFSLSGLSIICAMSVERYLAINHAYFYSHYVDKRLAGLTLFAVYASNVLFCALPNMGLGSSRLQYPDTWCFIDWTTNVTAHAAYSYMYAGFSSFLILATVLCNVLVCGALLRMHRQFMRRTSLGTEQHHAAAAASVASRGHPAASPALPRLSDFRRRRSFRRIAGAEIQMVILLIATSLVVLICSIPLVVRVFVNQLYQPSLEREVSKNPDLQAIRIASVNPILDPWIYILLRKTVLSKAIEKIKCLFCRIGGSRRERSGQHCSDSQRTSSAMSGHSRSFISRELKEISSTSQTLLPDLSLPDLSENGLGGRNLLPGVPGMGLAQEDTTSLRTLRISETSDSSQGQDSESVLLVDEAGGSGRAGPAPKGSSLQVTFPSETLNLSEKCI
# Description: (§4) Data from running binding and activity studies on the compounds of the invention were carried out as described in U.S. Pat. No. 7,427,685, the contents of which are incorporated herein by reference.
# EP2 [3] = target: T2, EP2 (Homo sapiens, UniProt P43116); assay: EP2 binding
# T2 sequence (P43116 whole entry): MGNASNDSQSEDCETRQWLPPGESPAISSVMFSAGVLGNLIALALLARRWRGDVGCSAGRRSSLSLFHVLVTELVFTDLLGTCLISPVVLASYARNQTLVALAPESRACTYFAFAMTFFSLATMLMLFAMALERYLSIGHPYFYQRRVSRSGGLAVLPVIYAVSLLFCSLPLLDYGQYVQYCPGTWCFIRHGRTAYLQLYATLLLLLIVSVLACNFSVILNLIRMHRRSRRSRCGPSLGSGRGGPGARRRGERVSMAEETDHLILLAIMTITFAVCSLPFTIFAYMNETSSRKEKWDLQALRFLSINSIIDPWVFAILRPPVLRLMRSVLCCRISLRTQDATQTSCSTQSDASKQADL
# Description: as §4
# hEP3A = target: T3, hEP3A (Homo sapiens, UniProt P43115); assay: Other receptors functional assay, hEP3A; format: cell-based
# T3 sequence (P43115 1-390): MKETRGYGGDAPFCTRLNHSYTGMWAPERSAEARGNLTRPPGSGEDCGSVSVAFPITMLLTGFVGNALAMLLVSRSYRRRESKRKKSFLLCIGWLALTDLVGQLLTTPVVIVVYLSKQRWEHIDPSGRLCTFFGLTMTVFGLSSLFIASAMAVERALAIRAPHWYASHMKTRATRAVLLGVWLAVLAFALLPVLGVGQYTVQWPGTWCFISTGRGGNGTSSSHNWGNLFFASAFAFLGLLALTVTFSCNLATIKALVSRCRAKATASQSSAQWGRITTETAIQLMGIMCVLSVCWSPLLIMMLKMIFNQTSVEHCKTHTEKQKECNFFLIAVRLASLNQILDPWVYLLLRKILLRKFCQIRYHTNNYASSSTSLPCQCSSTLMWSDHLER
# Description: as §4
# EP2 [4] = target: T2, EP2; assay: EP2 cAMP assay; format: cell-based
# Description: as §4
# EP4 [5] = target: T1, EP4; assay: EP4 binding
# Description: as §4
# EP2 [6] = target: T2, EP2; assay: EP2 flipr functional assay; format: cell-based
# Description: as §4
SMILES,EC50 (EP4 [2]),Ki (EP2 [3]),EC50 (hEP3A),EC50 (EP2 [4]),Ki (EP4 [5]),EC50 (EP2 [6]),maximum IOP decrease from baseline [1],maximum IOP decrease from baseline (percent) [1],maximum intraocular pressure (IOP) decrease from baseline (normotensive dogs; maximum at 52 h),maximum intraocular pressure (IOP) decrease from baseline (percent) (normotensive dogs; maximum at 52 h),maximum ocular surface hyperemia (OSH) score (normotensive dogs; maximum at 54 h),maximum ocular surface hyperemia (OSH) score (normotensive dogs; maximum at 28 h),maximum intraocular pressure (IOP) decrease from baseline (normotensive dogs; maximum at 78 h),maximum intraocular pressure (IOP) decrease from baseline (percent) (normotensive dogs; maximum at 78 h)
"O=C(OCCO)c1ccc(CCNC(=O)c2cc(-c3cccc(F)c3)ccc2F)s1 [2-Hydroxyethyl 5-(2-(3′,4-difluoro-[1,1′-biphenyl]-3-ylcarboxamido)ethyl)thiophene-2-carboxylate]",,,,,,,13.1 mmHg,31%,6.6 mmHg,50%,1.6,,,
"O=C(O)c1ccc(CCNC(=O)c2cc(-c3cccc(F)c3)ccc2F)s1 [Compound 1, 5-(2-(3′,4-Difluoro-[1,1′-biphenyl]-3-ylcarboxamido)ethyl)thiophene-2-carboxylic acid]",5140 nM,63 nM,8900 nM,2 nM,648 nM,49 nM,,,,,,,,
"O=C(O)c1ccc(CNC(=O)c2cc(-c3cccc(F)c3)ccc2F)s1 [Compound 2, 5-((3′,4-Difluoro-[1,1′-biphenyl]-3-ylcarboxamido)methyl)thiophene-2-carboxylic acid]",> 10000 nM,631 nM,,> 10000 nM,845 nM,> 10000 nM,,,,,,,,
"O=C(NCCc1ccc(C(=O)O)s1)c1cccc(-c2cccc(F)c2)c1 [Compound 5, 5-(2-(3′-Fluoro-[1,1′-biphenyl]-3-ylcarboxamido)ethyl)thiophene-2-carboxylic acid]",6020 nM,150 nM,> 10000 nM,8 nM,739 nM,26 nM,,,,,,,,
"CC(C)OC(=O)c1ccc(CCNC(=O)c2cc(-c3cccc(F)c3)ccc2F)s1 [Isopropyl 5-(2-(3′,4-difluoro-[1,1′-biphenyl]-3-ylcarboxamido)ethyl)thiophene-2-carboxylate]",,,,,,,6.9 mmHg,19%,,,,0.8,5.2 mmHg,32%

# More lines, main results first:
EC50 (EP4 [2]),Ki (EP2 [3]),EC50 (hEP3A),EC50 (EP2 [4]),Ki (EP4 [5]),EC50 (EP2 [6]),SMILES,maximum IOP decrease from baseline [1],maximum IOP decrease from baseline (percent) [1],maximum intraocular pressure (IOP) decrease from baseline (normotensive dogs; maximum at 52 h),maximum intraocular pressure (IOP) decrease from baseline (percent) (normotensive dogs; maximum at 52 h),maximum ocular surface hyperemia (OSH) score (normotensive dogs; maximum at 54 h),maximum ocular surface hyperemia (OSH) score (normotensive dogs; maximum at 28 h),maximum intraocular pressure (IOP) decrease from baseline (normotensive dogs; maximum at 78 h),maximum intraocular pressure (IOP) decrease from baseline (percent) (normotensive dogs; maximum at 78 h)
> 10000 nM,177 nM,3290 nM,5 nM,1480 nM,31 nM,"O=C(O)c1ccc(CCCNC(=O)c2cc(-c3cccc(F)c3)ccc2F)s1 [Compound 3, 5-(3-(3′,4-Difluoro-[1,1′-biphenyl]-3-ylcarboxamido)propyl)thiophene-2-carboxylic acid]",,,,,,,,
> 10000 nM,6880 nM,,> 10000 nM,8640 nM,> 10000 nM,"O=C(O)c1ccc(CCCCNC(=O)c2cc(-c3cccc(F)c3)ccc2F)s1 [Compound 4, 5-(4-(3′,4-Difluoro-[1,1′-biphenyl]-3-ylcarboxamido)butyl)thiophene-2-carboxylic acid]",,,,,,,,
4440 nM,122 nM,4810 nM,4 nM,750 nM,11 nM,"O=C(NCCc1ccc(C(=O)O)s1)c1cc(F)cc(-c2cccc(F)c2)c1 [Compound 6, 5-(2-(3′,5-Difluoro-[1,1′-biphenyl]-3-ylcarboxamido)ethyl)thiophene-2-carboxylic acid]",,,,,,,,
> 10000 nM,126 nM,1420 nM,5 nM,814 nM,37 nM,"O=C(NCCCc1ccc(C(=O)O)s1)c1cc(F)cc(-c2cccc(F)c2)c1 [Compound 7, 5-(3-(3′,5-Difluoro-[1,1′-biphenyl]-3-ylcarboxamido)propyl)thiophene-2-carboxylic acid]",,,,,,,,
